Key:
[1] = test system: primary neuron and glia cells; assay: LDH release from glutamate challenged primary neuron and glia cells; assay type: cell-based
Description: FIGS. 36A-B show rescue of glutamate challenged primary neuron and glia cells as measured by LDH release. Studies with glutamate challenged primary neuron and glial cells show efficacy of GC-MP/MP and GCMP at high concentrations and GC-MP/MP at low concentrations (FIG. 36A). MPHS is beneficial at lower concentrations. LDH release from glutamate challenged (100 umol) primary neuron and glial cells treated with GC, GC-MP, GC-MP/MP (all 1 mg/ml) and MPHS (250 ug/ml) (FIG. 36B).

PC12 cell = assay: H2O2-induced PC12 cell injury model, apoptosis (Example 1); assay type: cell-based

Compound	rescue of glutamate challenged cells, LDH release ([1]; 16 hours, GC, GC-MP, GC-MP/MP 1 mg/ml, MPHS 250 ug/ml, glutamate 100 umol)	rescue of glutamate challenged cells at low concentrations ([1]; FIG. 36A)	reducing cell apoptosis (PC12 cell)
C[C@H]1C[C@@H]2[C@H]([C@@H](O)C[C@@]3(C)[C@H]2CC[C@]3(O)C(=O)COC(=O)CCC(=O)O)[C@@]2(C)C=CC(=O)C=C12 [MPHS, methylprednisolone hemisuccinate]	not significant	beneficial	–
COc1cc(/C=C/C(=O)CC(=O)/C=C/c2ccc(O)c(OC)c2)ccc1O [curcumin]	–	–	effective in reducing cell apoptosis

Source: patent publication US20150196668A1, “NANOMEDICINES FOR EARLY NERVE REPAIR” (Purdue Research Foundation, priority 2011, published 2015)
